Reference: patent publication US20220153732A1, “PROTEIN SECRETION INHIBITORS” (KEZAR LIFE SCIENCES, priority 2019, published 2022)
Where two headings read alike, the source gives them in different places.

Legend:
Assay type in all cases: cell-based
[1] = tested on: human multiple myeloma cell line U266B1; assay: U266 Cell Viability Assay; details: U-266, 48 hr, U266B1 cells, Celltiter-Glo, read-out: 48 hr U266 Viability Celltiter-Glo: Mean EC50
Procedure, shortened: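 U266B1 myeloma cells treated with compound dilutions in DMSO/media for 48 h at 37 °C, 5% CO2. Viability read by CellTiter-Glo luminescence. Stereochemically undefined structures were tested as stereoisomer mixtures.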

[2] = tested on: PD1-ss+10aa/Gaussia Luciferase; assay: Dox-Induced PD1-ss-Gluc Assay
Procedure, shortened: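 Stable cell line carrying PD1-ss+10aa/Gaussia luciferase cDNA under T-REx (doxycycline-inducible) control, plated the day before assay. Compound dilutions in DMSO/media containing doxycycline added and incubated at 37° C, 5% CO2. Undefined stereocentres: data refer to stereoisomer mixtures.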

[3] = tested on: HER3-ss+4aa/Gaussia Luciferase; assay: Dox-Induced Her3-ss-Gluc Assay
Procedure, shortened: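 Stable T-REx cell line carrying a doxycycline-regulated HER3-ss+4aa/Gaussia luciferase insert, plated the day before assay. Compound dilutions in DMSO/media with doxycycline added, then incubated at 37° C., 5% CO2. Stereoisomer mixtures tested where stereochemistry is not drawn.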

[4] = tested on: TNFα-FL/Gaussia Luciferase; assay: Dox Induced TNFα-FL-Gluc Assay
Procedure, shortened: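 A stable T-REx cell line carrying doxycycline-inducible TNFα-FL/Gaussia luciferase was plated the day before assay. Compound dilutions in DMSO/media containing doxycycline were then added and incubated at 37° C, 5% CO2.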

[5] = tested on: IL-2-FL/Gaussia Luciferase; assay: Dox Induced IL2-FL-Gluc Assay
Procedure, shortened: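 Stable T-REx cell line expressing doxycycline-inducible IL-2-FL/Gaussia luciferase cDNA, plated the day before assay. Compound dilutions in DMSO/media containing doxycycline added and incubated at 37° C., 5% CO2. Unspecified stereochemistry means data refer to a stereoisomer mixture.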

[6] = tested on: human multiple myeloma cell line NCI-H929; assay: H929 Cell Viability Assay; details: 48 hr, NCI-H929 cells, Celltiter-Glo, read-out: 48 hr H929 Viability Celltiter-Glo: Mean EC50
Experimental: Plates were incubated at 37° C., 5% CO2 for 48 hours. After 48 hours, Celltiter-Glo® (Promega) was added to each well and luciferase signal was quantified using Tecan Infinite M1000 Pro for cell viability determination.
For chemical structures that include one or more stereoisomers, but are illustrated without indicating stereochemistry, the assay data refers to a mixture of stereoisomers.

[7] = 24 hr doxycycline induction, 293FRT/TO cells, Gaussia luciferase signal; read-out: 24 hr Dox Inducible PD1ssGluc 293FRT/TO: Mean IC50
[8] = 24 hr doxycycline induction, 293FRT/TO cells, Gaussia luciferase signal; read-out: 24 hr Dox Inducible Her3(ss + 4)Gluc 293FRT/TO: Mean IC50
[9] = 24 hr doxycycline induction, 293FRT/TO cells, Gaussia luciferase signal; read-out: 24 hr Dox Inducible TNFaFLGluc 293FRT/TO: Mean IC50
[10] = 24 hr doxycycline induction, 293FRT/TO cells, Gaussia luciferase signal; read-out: 24 hr Dox Inducible IL2FLGIuc 293FRT/TO: Mean IC50
[11] = 24 hr, doxycycline-induced, 293FRT/TO cells; read-out: 24 hr Dox Inducible PD1ssGluc 293FRT/TO: Mean IC50
[12] = 24 hr, doxycycline-induced, 293FRT/TO cells; read-out: 24 hr Dox Inducible Her3(ss + 4)Gluc 293FRT/TO: Mean IC50
[13] = 24 hr, doxycycline-induced, 293FRT/TO cells; read-out: 24 hr Dox Inducible TNFaFLGluc 293FRT/TO: Mean IC50
[14] = 24 hr, doxycycline-induced, 293FRT/TO cells; read-out: 24 hr Dox Inducible IL2FLGIuc 293FRT/TO: Mean IC50

Row | SMILES | EC50 [1] [µM] | IC50 [2, 7] [µM] | IC50 [3, 8] [µM] | IC50 [4, 9] [µM] | IC50 [5, 10] [µM] | EC50 [6] [µM] | IC50 [2, 11] [µM] | IC50 [3, 12] [µM] | IC50 [4, 13] [µM] | IC50 [5, 14] [µM] | IC50 ([2]; read-out: 24 hr Dox Inducible PD1ssGluc 293FRT/TO: Mean IC50; 24 hr, doxycycline-induced, 293FRT/TO cells) [µM] | IC50 ([3]; read-out: 24 hr Dox Inducible Her3(ss + 4)Gluc 293FRT/TO: Mean IC50; 24 hr, doxycycline-induced, 293FRT/TO cells) [µM] | IC50 ([4]; read-out: 24 hr Dox Inducible TNFaFLGluc 293FRT/TO: Mean IC50; 24 hr, doxycycline-induced, 293FRT/TO cells) [µM] | IC50 ([5]; read-out: 24 hr Dox Inducible IL2FLGIuc 293FRT/TO: Mean IC50; 24 hr, doxycycline-induced, 293FRT/TO cells) [µM]
1 | O=C(Nc1nc(C2CC2)cs1)c1cccn1Cc1ccncc1 [Compound A51] | > 25 | 1.3 | 3.42 | > 25 | 2.98 | > 25 | – | – | – | – | – | – | – | –
2 | COc1ccc(/C=C/c2csc(NC(=O)c3cccn3Cc3ccncc3)n2)c(F)c1 [Compound A241, N-(4-(2-fluoro-4-methoxystyryl)thiazol-2-yl)-1-(pyridin-4-ylmethyl)-1H-pyrrole-2-carboxamide] | > 25 | 0.027 | 0.179 | 1.31 | 0.324 | 8.37 | – | – | – | – | – | – | – | –
3 | CC(C)OC(C)(C)c1csc(NC(=O)c2cccn2Cc2ccnc3ccccc23)n1 [Compound A90, N-(4-(2-isopropoxypropan-2-yl)thiazol-2-yl)-1-(quinolin-4-ylmethyl)-1H-pyrrole-2-carboxamide] | > 25 | 10 | > 25 | > 25 | > 25 | 16.9 | – | – | – | – | – | – | – | –
4 | CCc1cnc(NC(=O)c2cccn2Cc2ccncc2)s1 [Compound A65] | > 25 | 1.79 | 4.13 | > 25 | 11.2 | > 25 | – | – | – | – | – | – | – | –
5 | O=C(Nc1nc([C@H]2CC[C@@H]2c2ccccc2)cs1)c1cccn1Cc1ccncc1 [Compound A331] | > 25 | – | – | – | – | 4.72 | 0.064 | 0.082 | 0.423 | 0.178 | – | – | – | –
6 | COc1ccc([C@H]2C[C@H]2c2csc(NC(=O)c3cccn3Cc3ccncc3)n2)nc1 [Compound A312] | > 25 | – | – | – | – | > 25 | 0.197 | 0.646 | 4.13 | 1.14 | – | – | – | –
7 | Cc1sc(NC(=O)c2cccn2Cc2ccncc2)nc1C(C)OC(C)C (stereo not drawn) [Compound A20, N-(4-(1-isopropoxyethyl)-5-methylthiazol-2-yl)-1-(pyridin-4-ylmethyl)-1H-pyrrole-2-carboxamide] | > 25 | 0.248 | 0.51 | 7.17 | 0.351 | > 25 | – | – | – | – | – | – | – | –
8 | CCS(=O)(=O)N1CCN(Cc2csc(NC(=O)c3cccn3Cc3ccncc3)n2)CC1 [Compound A96, N-(4-((4-(ethylsulfonyl)piperazin-1-yl)methyl)thiazol-2-yl)-1-(pyridin-4-ylmethyl)-1H-pyrrole-2-carboxamide] | > 25 | 15.7 | > 25 | > 25 | > 25 | > 25 | – | – | – | – | – | – | – | –
9 | CC(C)(C)[Si](O[C@H]1CCN(c2ccccc2)[C@@H]1c1csc(NC(=O)c2cccn2Cc2ccncc2)n1)(c1ccccc1)c1ccccc1 [Compound A353] | > 25 | – | – | – | – | 0.303 | – | – | – | – | 0.005 | 0.012 | 0.013 | 0.011
10 | Cc1nc(NC(=O)c2cccn2Cc2ccncc2)sc1C [Compound A58, N-(4,5-dimethylthiazol-2-yl)-1-(pyridin-4-ylmethyl)-1H-pyrrole-2-carboxamide] | > 25 | 1.5 | 3.53 | > 25 | 7.06 | > 25 | – | – | – | – | – | – | – | –
11 | O=C(Nc1nc(N2CCc3ccccc3C2)cs1)c1cccn1Cc1ccncc1 [Compound A267] | > 25 | 15.4 | > 25 | > 25 | > 25 | > 25 | – | – | – | – | – | – | – | –
12 | O=C(Nc1nc(N2CCC(c3ccccc3)C2)cs1)c1cccn1Cc1ccncc1 (stereo not drawn) [Compound A273] | > 25 | > 25 | > 25 | > 25 | > 25 | > 25 | – | – | – | – | – | – | – | –
13 | Cc1cc(NC(=O)c2cccn2Cc2ccncc2)no1 [Compound B8, N-(5-methylisoxazol-3-yl)-1-(pyridin-4-ylmethyl)-1H-pyrrole-2-carboxamide] | > 25 | – | – | – | – | > 25 | 9.1 | > 25 | > 25 | > 25 | – | – | – | –
14 | O=C(Nc1nc(N2CCCCC2)cs1)c1cccn1Cc1ccncc1 [Compound A264] | > 25 | > 25 | > 25 | > 25 | > 25 | > 25 | – | – | – | – | – | – | – | –
15 | CCCc1cnc(NC(=O)c2cccn2Cc2ccncc2)s1 [Compound A62] | > 25 | 1.69 | 4.3 | > 25 | 5.07 | > 25 | – | – | – | – | – | – | – | –

The next lines start with results.

Row | EC50 [1] [µM] | IC50 [2, 7] [µM] | IC50 [3, 8] [µM] | IC50 [4, 9] [µM] | IC50 [5, 10] [µM] | EC50 [6] [µM] | IC50 [2, 11] [µM] | IC50 [3, 12] [µM] | IC50 [4, 13] [µM] | IC50 [5, 14] [µM] | SMILES | IC50 ([2]; read-out: 24 hr Dox Inducible PD1ssGluc 293FRT/TO: Mean IC50; 24 hr, doxycycline-induced, 293FRT/TO cells) [µM] | IC50 ([3]; read-out: 24 hr Dox Inducible Her3(ss + 4)Gluc 293FRT/TO: Mean IC50; 24 hr, doxycycline-induced, 293FRT/TO cells) [µM] | IC50 ([4]; read-out: 24 hr Dox Inducible TNFaFLGluc 293FRT/TO: Mean IC50; 24 hr, doxycycline-induced, 293FRT/TO cells) [µM] | IC50 ([5]; read-out: 24 hr Dox Inducible IL2FLGIuc 293FRT/TO: Mean IC50; 24 hr, doxycycline-induced, 293FRT/TO cells) [µM]
16 | > 25 | > 25 | > 25 | > 25 | > 25 | > 25 | – | – | – | – | CC(C)OC(C)(C)c1csc(NC(=O)c2ccc(C(N)=O)n2Cc2ccncc2)n1 [Compound A105, N-(4-(2-isopropoxypropan-2-yl)thiazol-2-yl)-1-(pyridin-4-ylmethyl)-1H-pyrrole-2,5-dicarboxamide] | – | – | – | –
17 | > 25 | 0.063 | 0.216 | > 25 | 0.341 | 4.49 | – | – | – | – | O=C(Nc1nc(/C=C/c2ccc3c(c2)OCO3)cs1)c1cccn1Cc1ccncc1 [Compound A234, N-(4-(2-(benzo[d][1,3]dioxo1-5-yl)vinyl)thiazol-2-yl)-1-(pyridin-4-ylmethyl)-1H-pyrrole-2-carboxamide] | – | – | – | –
18 | > 25 | > 25 | > 25 | > 25 | > 25 | > 25 | – | – | – | – | O=C(Nc1nc(CCO)cs1)c1cccn1Cc1ccncc1 [Compound A120] | – | – | – | –
19 | > 25 | 1.29 | 2.93 | > 25 | 1.45 | > 25 | – | – | – | – | O=C(Nc1nc2ccccc2s1)c1cccn1Cc1ccncc1 [Compound A50, N-(benzo[d]thiazol-2-yl)-1-(pyridin-4-ylmethyl)-1H-pyrrole-2-carboxamide] | – | – | – | –
20 | > 25 | 1.88 | 4.01 | 24.8 | 3.63 | > 25 | – | – | – | – | CC(C)(OCc1ccccn1)c1csc(NC(=O)c2cccn2Cc2ccncc2)n1 [Compound A257] | – | – | – | –
21 | > 25 | – | – | – | – | 21.5 | 0.19 | 0.548 | 2.85 | 0.379 | O=C(Nc1nc([C@@H]2COCCN2c2ccccc2)cs1)c1cccn1Cc1ccncc1 [Compound A337] | – | – | – | –
22 | > 25 | – | – | – | – | 3.62 | 0.026 | 0.046 | 0.206 | 0.058 | CO[C@@H]1C[C@H](c2csc(NC(=O)c3cccn3Cc3ccncc3)n2)N(c2ccccc2)C1 [Compound A325] | – | – | – | –
23 | > 25 | – | – | – | – | > 25 | > 25 | > 25 | > 25 | > 25 | NC(=O)Cc1csc(NC(=O)c2cccn2Cc2ccncc2)n1 [Compound B18] | – | – | – | –
24 | 22.3 | 0.029 | 0.062 | 0.391 | 0.105 | 1.61 | – | – | – | – | CC(OC(C)(C)c1csc(NC(=O)c2cccn2Cc2ccncc2)n1)c1cccc(Cl)c1 (stereo not drawn) [Compound A2, N-(4-(2-(1-(3-chlorophenyl)ethoxy)propan-2-yl)thiazol-2-yl)-1-(pyridin-4-ylmethyl)-1H-pyrrole-2-carboxamide] | – | – | – | –
